Patent publication US11684614B2, “Formulations of hydroxypyridonate actinide/lanthanide decorporation agents” (priority 2017, dated 2023)

Assay: Repeated-treatment efficacy for removing an intravenous dose of 238Pu (excretion, tissue retention, clinical observations), female and male arms
Assay type: in vivo, Swiss-Webster mice
Settings: female mice; for ^238Pu percent increase in excretion, Total Excretion / ^238Pu percent increase in excretion, Total Feces / ^238Pu percent increase in excretion, Total Urine: over untreated control group; for ^238Pu percent tissue reduction, GI Tract / ^238Pu percent tissue reduction, Kidney / ^238Pu percent tissue reduction, Liver / ^238Pu percent tissue reduction, Soft Tissue / ^238Pu percent tissue reduction, Total Body / ^238Pu percent tissue reduction, Total Bone: vs untreated control group
Procedure: The objective of this study was to characterize the efficacy of 3,4,3-L1(1,2-HOPO) at enhancing elimination from an internal plutonium burden in female and male Swiss-Webster mice administered a soluble citrate complex of ^238Pu and treated multiple times, starting at 24 hours after the exposure. Efficacy was evaluated by comparing the tissue contents, urinary and fecal excretions of ^238Pu in treated animals versus untreated animals.
The medical countermeasure 3,4,3-L1(1,2-HOPO) was administered parenterally (ip) or orally (po) via consecutive injections or gavages (six daily or twelve twice daily) starting at 24 hours post contamination at the following four selected doses: 30 μmol/kg ip, 150 μmol/kg po, 300 μmol/kg po, and 600 μmol/kg po (equivalent to respective approximate human doses range of […], using the accepted conversion system of mouse doses into human equivalent doses—HED—based on body surface area). Oral doses also included the permeability enhancer selected during formulation development work.
• Challenge isotope: ^238Pu • Challenge dose: 25 nCi (i.e., approximately 0.8 μCi/kg) • Route of contamination: Intravenous (iv) tail-vein • Route of treatment: Intraperitoneal Injection (ip) or Oral (po) • Frequency of treatment: Multiple (once- or twice-daily for 6 days) doses, starting 24 hr postcontamination • Treatment dose calculation: Dose calculations (mg/kg or μmol/kg) for the decorporation agent were based on the individual body weight measured after contamination. • Study Duration: 11 days, in-life
c. […] Test article and control dose formulations were prepared within 1 day of dose administration, by weighing out the appropriate amount of test article, dispersing in vehicle. For ip solutions, the test article was used alone, while for oral suspensions, a mixture of test article and excipient (90:10, w:w) was used. The pH was adjusted to 7.0-7.4 for ip administration and 5.0-5.5 for oral administration with sterile NaOH. Dose formulations were prepared at room temperature and filter-sterilized. • Storage: 2-8° C.; refrigerated; protected from light. • Characterization: The concentration of each test article formulation was verified by high-performance liquid chromatography-mass spectrometry. • Test Article Handling: Test, reference, and control article formulations were handled with the use of eye protection, gloves, and a protective laboratory coat. • Correct Dose Assurance: The test article was weighed with calibrated balances. The administration of each dose formulation was properly documented, and the amount administered to each animal recorded.
e. Experimental Procedures (In-Life Evaluations and Euthanasia) • Contamination: Single administration by intravenous (iv) tail-vein injection (0.2 mL injection volume) under isoflurane anesthesia. Three standard 0.2 mL injections were performed into polyethylene bottles and pre-loaded with aliquots of concentrated nitric acid on each injection day. Six female and six male mice were culled for necropsy 1 hr post-contamination and were used as standards. A11 standards were processed and counted together with the final samples to allow verification of the contamination dose. • Dose Administration: Single administration by intraperitoneal injection (ip) or oral gavage (po) under isoflurane anesthesia. • Mortality/Morbidity: Assessed at least once daily. • Clinical Observations: Recorded once daily (4 hr post-dose on day of treatment), or more often as clinical signs warranted. […]

[1] = 30 μmol/kg, IP, 11-day necropsy
[2] = 150 μmol/kg, 2 doses PO, 7-day necropsy
[3] = 300 μmol/kg, 1 dose PO, 7-day necropsy
[4] = 300 μmol/kg, 1 dose PO, 11-day necropsy
[5] = 300 μmol/kg, 1 doses PO, 7-day necropsy
[6] = 300 μmol/kg, 2 doses PO, 7-day necropsy
[7] = 300 μmol/kg, PO, 11-day necropsy
[8] = 600 μmol/kg, 1 dose PO, 7-day necropsy
[9] = 600 μmol/kg, 1 dose PO, 11-day necropsy
[10] = 600 μmol/kg, PO, 11-day necropsy

## O=C(NCCCN(CCCCN(CCCNC(=O)c1cccc(=O)n1O)C(=O)c1cccc(=O)n1O)C(=O)c1cccc(=O)n1O)c1cccc(=O)n1O [Formulation 343]
[1]
  ^238Pu excretion, Total Excretion, Avg: 79.37 percent recovered dose
  ^238Pu excretion, Total Feces, Avg: 41.80 percent recovered dose
  ^238Pu excretion, Total Urine, Avg: 37.57 percent recovered dose
  ^238Pu retention, GI Tract, Avg: 0.59 percent recovered dose
  ^238Pu retention, Kidney, Avg: 0.11 percent recovered dose
  ^238Pu retention, Liver, Avg: 2.79 percent recovered dose
  ^238Pu retention, Soft Tissue, Avg: 1.40 percent recovered dose
  ^238Pu retention, Total Body, Avg: 20.63 percent recovered dose
  ^238Pu retention, Total Bone, Avg: 15.74 percent recovered dose
  ^238Pu percent increase in excretion, Total Excretion: 157.74%
  ^238Pu percent increase in excretion, Total Feces: 146.77%
  ^238Pu percent increase in excretion, Total Urine: 172.05%
  ^238Pu percent tissue reduction, GI Tract: 55.96%
  ^238Pu percent tissue reduction, Kidney: 58.43%
  ^238Pu percent tissue reduction, Liver: 76.81%
  ^238Pu percent tissue reduction, Soft Tissue: 50.90%
  ^238Pu percent tissue reduction, Total Body: 58.48%
  ^238Pu percent tissue reduction, Total Bone: 52.58%
[2]
  ^238Pu excretion, Total Excretion, Avg: 62.18 percent recovered dose
  ^238Pu excretion, Total Feces, Avg: 33.16 percent recovered dose
  ^238Pu excretion, Total Urine, Avg: 29.02 percent recovered dose
  ^238Pu retention, GI Tract, Avg: 1.20 percent recovered dose
  ^238Pu retention, Kidney, Avg: 0.23 percent recovered dose
  ^238Pu retention, Liver, Avg: 12.83 percent recovered dose
  ^238Pu retention, Soft Tissue, Avg: 1.64 percent recovered dose
  ^238Pu retention, Total Body, Avg: 37.82 percent recovered dose
  ^238Pu retention, Total Bone, Avg: 21.92 percent recovered dose
  ^238Pu percent increase in excretion, Total Excretion: 129.85%
  ^238Pu percent increase in excretion, Total Feces: 146.48%
  ^238Pu percent increase in excretion, Total Urine: 114.93%
  ^238Pu percent tissue reduction, GI Tract: 35.66%
  ^238Pu percent tissue reduction, Kidney: 43.29%
  ^238Pu percent tissue reduction, Liver: 31.41%
  ^238Pu percent tissue reduction, Soft Tissue: 19.55%
  ^238Pu percent tissue reduction, Total Body: 27.43%
  ^238Pu percent tissue reduction, Total Bone: 24.67%
[3]
  ^238Pu excretion, Total Excretion, Avg: 63.26 percent recovered dose
  ^238Pu excretion, Total Feces, Avg: 34.34 percent recovered dose
  ^238Pu excretion, Total Urine, Avg: 28.92 percent recovered dose
  ^238Pu retention, GI Tract, Avg: 1.20 percent recovered dose
  ^238Pu retention, Kidney, Avg: 0.26 percent recovered dose
  ^238Pu retention, Liver, Avg: 10.22 percent recovered dose
  ^238Pu retention, Soft Tissue, Avg: 1.74 percent recovered dose
  ^238Pu retention, Total Body, Avg: 36.74 percent recovered dose
  ^238Pu retention, Total Bone, Avg: 23.31 percent recovered dose
  ^238Pu percent increase in excretion, Total Excretion: 142.38%
  ^238Pu percent increase in excretion, Total Feces: 197.06%
  ^238Pu percent increase in excretion, Total Urine: 107.09%
[4]
  ^238Pu retention, GI Tract, Avg: 1.02 percent recovered dose
  ^238Pu retention, Kidney, Avg: 0.17 percent recovered dose
  ^238Pu retention, Liver, Avg: 6.02 percent recovered dose
  ^238Pu retention, Soft Tissue, Avg: 2.06 percent recovered dose
  ^238Pu retention, Total Body, Avg: 28.11 percent recovered dose
  ^238Pu retention, Total Bone, Avg: 18.85 percent recovered dose
  ^238Pu percent tissue reduction, GI Tract: 25.61%
  ^238Pu percent tissue reduction, Kidney: 37.82%
  ^238Pu percent tissue reduction, Liver: 55.06%
  ^238Pu percent tissue reduction, Soft Tissue: 22.98%
  ^238Pu percent tissue reduction, Total Body: 42.51%
  ^238Pu percent tissue reduction, Total Bone: 39.58%
[5]
  ^238Pu percent tissue reduction, GI Tract: 11.06%
  ^238Pu percent tissue reduction, Kidney: 20.17%
  ^238Pu percent tissue reduction, Liver: 38.39%
  ^238Pu percent tissue reduction, Soft Tissue: 25.25%
  ^238Pu percent tissue reduction, Total Body: 33.88%
  ^238Pu percent tissue reduction, Total Bone: 33.33%
[6]
  ^238Pu excretion, Total Excretion, Avg: 66.57 percent recovered dose
  ^238Pu excretion, Total Feces, Avg: 35.68 percent recovered dose
  ^238Pu excretion, Total Urine, Avg: 30.90 percent recovered dose
  ^238Pu retention, GI Tract, Avg: 1.25 percent recovered dose
  ^238Pu retention, Kidney, Avg: 0.18 percent recovered dose
  ^238Pu retention, Liver, Avg: 6.85 percent recovered dose
  ^238Pu retention, Soft Tissue, Avg: 1.62 percent recovered dose
  ^238Pu retention, Total Body, Avg: 33.43 percent recovered dose
  ^238Pu retention, Total Bone, Avg: 23.54 percent recovered dose
  ^238Pu percent increase in excretion, Total Excretion: 139.02%
  ^238Pu percent increase in excretion, Total Feces: 157.58%
  ^238Pu percent increase in excretion, Total Urine: 122.37%
  ^238Pu percent tissue reduction, GI Tract: 33.06%
  ^238Pu percent tissue reduction, Kidney: 56.34%
  ^238Pu percent tissue reduction, Liver: 63.39%
  ^238Pu percent tissue reduction, Soft Tissue: 20.76%
  ^238Pu percent tissue reduction, Total Body: 35.85%
  ^238Pu percent tissue reduction, Total Bone: 19.10%
[7]
  ^238Pu excretion, Total Excretion, Avg: 71.89 percent recovered dose
  ^238Pu excretion, Total Feces, Avg: 37.63 percent recovered dose
  ^238Pu excretion, Total Urine, Avg: 34.27 percent recovered dose
  ^238Pu percent increase in excretion, Total Excretion: 140.66%
  ^238Pu percent increase in excretion, Total Feces: 162.86%
  ^238Pu percent increase in excretion, Total Urine: 122.35%
[8]
  ^238Pu excretion, Total Excretion, Avg: 67.37 percent recovered dose
  ^238Pu excretion, Total Feces, Avg: 30.80 percent recovered dose
  ^238Pu excretion, Total Urine, Avg: 36.57 percent recovered dose
  ^238Pu retention, GI Tract, Avg: 1.24 percent recovered dose
  ^238Pu retention, Kidney, Avg: 0.23 percent recovered dose
  ^238Pu retention, Liver, Avg: 12.48 percent recovered dose
  ^238Pu retention, Soft Tissue, Avg: 1.62 percent recovered dose
  ^238Pu retention, Total Body, Avg: 32.63 percent recovered dose
  ^238Pu retention, Total Bone, Avg: 17.06 percent recovered dose
  ^238Pu percent increase in excretion, Total Excretion: 151.63%
  ^238Pu percent increase in excretion, Total Feces: 176.75%
  ^238Pu percent increase in excretion, Total Urine: 135.42%
  ^238Pu percent tissue reduction, GI Tract: 8.30%
  ^238Pu percent tissue reduction, Kidney: 29.85%
  ^238Pu percent tissue reduction, Liver: 24.79%
  ^238Pu percent tissue reduction, Soft Tissue: 30.25%
  ^238Pu percent tissue reduction, Total Body: 41.28%
  ^238Pu percent tissue reduction, Total Bone: 51.23%
[9]
  ^238Pu retention, GI Tract, Avg: 0.83 percent recovered dose
  ^238Pu retention, Kidney, Avg: 0.14 percent recovered dose
  ^238Pu retention, Liver, Avg: 5.60 percent recovered dose
  ^238Pu retention, Soft Tissue, Avg: 2.01 percent recovered dose
  ^238Pu retention, Total Body, Avg: 26.78 percent recovered dose
  ^238Pu retention, Total Bone, Avg: 18.20 percent recovered dose
  ^238Pu percent tissue reduction, GI Tract: 39.39%
  ^238Pu percent tissue reduction, Kidney: 48.77%
  ^238Pu percent tissue reduction, Liver: 58.17%
  ^238Pu percent tissue reduction, Soft Tissue: 24.63%
  ^238Pu percent tissue reduction, Total Body: 45.22%
  ^238Pu percent tissue reduction, Total Bone: 41.64%
[10]
  ^238Pu excretion, Total Excretion, Avg: 73.22 percent recovered dose
  ^238Pu excretion, Total Feces, Avg: 34.70 percent recovered dose
  ^238Pu excretion, Total Urine, Avg: 38.52 percent recovered dose
  ^238Pu percent increase in excretion, Total Excretion: 143.25%
  ^238Pu percent increase in excretion, Total Feces: 150.20%
  ^238Pu percent increase in excretion, Total Urine: 137.53%
